Measurements as given in patent US9023821B2, “Use of MicroRNA for treating diseases associated with a dysfunction of the cilia in multiciliated epithelial cells” (Centre National de la Recherche Scientifique, priority 2009, dated 2015).
{Chol} = cholesterol

Experiments:
HAEC cells [1] = assay: Ciliogenesis of HAEC cells treated with antagomir during regeneration (tubulin-β4 positive cells); type: cell-based, human; details: number of ciliated HAEC cells at stage ALI-D21, n=6, P<0.001
Experimental: (a,b) the HEAC cells are treated several times with anti-miR-449 antagomirs or a control antagomir (20 nM) during their regeneration (generally 21 days). The percentage of ciliated cells was defined as the ratio of the number of cells positive to +tubulin-β4 relative to the number of nuclei (20 fields/filter and 3 filters/donor). […] The histogram indicates the percentage of ciliated cells per field for each experimental condition (n=6, ***, P<0.001, Student test).
Six independent cultures of HAEC cells were transfected with an oligonucleotide directed against the miR-449s and conjugated with a cholesterol molecule; ciliogenesis was evaluated during the regeneration time.
These tests use an antisense oligonucleotide of miR-449a (antagomir) bound at 3′ by a 2′-O-methyl bond to a molecule of cholesterol and with the sequence: 5′-ascscsagcuaacaauacacugcscsa-Chol-3′ (SEQ. ID. No. 207) (the phosphorothioate bonds are indicated by the subscript J (obtained according to Eurogentec (Seraing, Belgium).
The antagomir (100 μM) was preincubated in fetal calf serum (FCS) for 30 min RT. Then the antagomir-FCS mixture in a differentiation medium (20 μM of antagomir) is added on the apical face of the primary HAEC cells. After 2 h at 37° C., the mixture is withdrawn to restore the air-liquid interface. […]

miR-449 = assay: Expression of miRNAs in HAEC cells treated with antagomir; type: cell-based, human
HAEC cells [2] = assay: Ciliogenesis of HAEC cells under blocking of the Notch signalling pathway; type: cell-based, human; details: 10 μM
[3] = test system: human airway epithelial cells (HAECs); assay: High-throughput sequencing (HTS) of miRNAs at four stages of differentiation of HAECs
Procedure, shortened: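 Total RNA (with small RNAs) from air-liquid-interface HAECs at ALI-D0, D7, first cilia (~14 d) and fully differentiated (~21 d); adaptor-ligated SOLiD small-RNA libraries, RT-PCR, gel-selected ~105-150 bases. Counts normalized to 10^6 sequences as % abundance; linear-model/empirical Bayes; kept >1% abundance, |Log2 Ratio| <0.5, adjusted P <0.05.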

[4] = test system: basal cells and pyramidal cells of the airway epithelium; assay: miRNA expression in sorted basal cells versus pyramidal cells (ciliated + secretory), HTS and Agilent chips; parameters: species or system human
Procedure, shortened: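 Nasal polyp or concha epithelial cells from 3 donors FACS-sorted into CD151+/tissue factor+ basal cells and CD151−/TF− pyramidal (ciliated plus mucus-secreting) cells, excluding dead (DAPI) cells and doublets. miRNA profiles from total RNA obtained by Agilent chips or high-throughput sequencing.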

[5] = test system: human airway epithelial cells (HAECs); assay: Agilent miRNA chips, miRNA expression at four stages of differentiation of HAECs
Procedure, shortened: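 Expression was profiled on Human miRNA Microarray v2 chips covering 866 human and 89 human viral miRNAs from miRBase v12.0. Labelled HAEC RNA came from the same patients used for sequencing and was hybridized per kit protocol. Chip and sequencing results were compared.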

Q: Which results are given for “anti-miR-449 antagomir: antisense oligonucleotide of miR-449a bound at 3′ to cholesterol, 5′-ascscsagcuaacaauacacugcscsa-Chol-3′ (SEQ. ID. No. 207) (antisense ACCAGCUAACAAUACACUGCCA; linkages s3 o16 s2 (s phosphorothioate, o phosphodiester), 3' {Chol}, sugars by position and methylation of C not given here; further chemistry not fully specified; listed as Homo sapiens)”?
A: mean value of inhibition of ciliogenesis (HAEC cells [1]): 2.3±0.3; expression of miR449a (miR-449; n=6): suppresses; expression of miR-21 (miR-449; n=6): no effect; expression of miR-449b (miR-449; n=6): suppresses; expression of miR-449 (miR-449; stage ALI-D21): reduction of the same order

Q: For `C[C@H](NC(=O)Cc1cc(F)cc(F)c1)C(=O)N[C@H](C(=O)OC(C)(C)C)c1ccccc1` [DCT], which “ciliogenesis during regeneration of the HAEC cells” value (HAEC cells [2]) is on record?
A: Its value is “potentiates ciliogenesis significantly”.

Q: For “hsa-miR-200b: human miRNA, SEQ ID No. 17 (UAAUACUGCCUGGUAAUGAUGA; expressed or natural sequence; listed as Homo sapiens)”, which “Modulation (ratio of the level of intensity of expression in log2 in two stages of differentiation) measured by high-throughput sequencing, D7 − D0” value ([3]; D7 − D0, Table VI) is on record?
A: The value was 0.76 log2.

Q: What about the “Modulation (ratio of the level of intensity of expression in log2 in two stages of differentiation) measured by high-throughput sequencing, FC − D7” value ([3]; FC − D7, Table VI) of the same compound?
A: The value was 0.56 log2.

Q: And the “Modulation (ratio of the level of intensity of expression in log2 in two stages of differentiation) measured by high-throughput sequencing, WD − D0” value ([3]; WD − D0, Table VI)?
A: Its value is 2.36 log2.

Q: What about the “Modulation (ratio of the level of intensity of expression in log2 in two stages of differentiation) measured by high-throughput sequencing, WD − FC” value ([3]; WD − FC, Table VI) of the same compound?
A: The value was 1.03 log2.

Q: What about the “Level of intensity of expression in log2 At the differentiated stage (WD) measured in HTS” value ([3]; healthy human airway epithelial tissue, stage WD) of the same compound?
A: Its value is 10.64 log2.

Q: And the “Level of intensity of expression in log2 measured by high-throughput sequencing, D0” value ([3]; stage D0, Table VI)?
A: Its value is 8.60 log2.

Q: And the “Level of intensity of expression in log2 measured by high-throughput sequencing, D7” value ([3]; stage D7, Table VI)?
A: Its value is 9.37 log2.

Q: And the “Level of intensity of expression in log2 measured by high-throughput sequencing, FC” value ([3]; stage FC, Table VI)?
A: The value was 9.93 log2.

Q: And the “Level of intensity of expression in log2 measured by high-throughput sequencing, WD” value ([3]; stage WD, Table VI)?
A: The value was 10.96 log2.

Q: And the “Modulation of expression of the miRNAs in pyramidal cells (323(−)) relative to basal cells 323(+)” value ([4]; HTS and Agilent chips)?
A: The value was −0.15.

Q: And the “Intensity of the level of expression in log2 in basal cells (323(+))” value ([4]; basal cells)?
A: The value was 9.99 log2.

Q: What about the “Intensity of the level of expression in log2 in pyramidal cells (323(−))” value ([4]; pyramidal cells (ciliated + secretory)) of the same compound?
A: The value was 9.84 log2.

Q: What about the “Modulation (ratio of the level of intensity of expression in log2 in two stages of differentiation) measured with the Agilent chips, D7 − D0” value ([5]; D7 − D0, Table VI) of the same compound?
A: The value was 2.01 log2.

Q: And the “Modulation (ratio of the level of intensity of expression in log2 at two stages of differentiation), FC − D7” value ([5]; FC − D7, Agilent miRNA chips, Table V)?
A: The value was −0.07 log2.

Q: What about the “Modulation (ratio of the level of intensity of expression in log2 in two stages of differentiation) measured with the Agilent chips, FC − D7” value ([5]; FC − D7, Table VI) of the same compound?
A: Its value is −0.07 log2.

Q: What about the “Modulation (ratio of the level of intensity of expression in log2 in two stages of differentiation) measured with the Agilent chips, WD − D0” value ([5]; WD − D0, Table VI) of the same compound?
A: Its value is 2.11 log2.

Q: And the “Modulation (ratio of the level of intensity of expression in log2 at two stages of differentiation), WD − FC” value ([5]; WD − FC, Agilent miRNA chips, Table V)?
A: Its value is 0.17 log2.

Q: And the “Modulation (ratio of the level of intensity of expression in log2 in two stages of differentiation) measured with the Agilent chips, WD − FC” value ([5]; WD − FC, Table VI)?
A: Its value is 0.17 log2.

Q: What about the “Level of intensity of expression in log2 measured with the Agilent chips, D0” value ([5]; stage D0, Table VI) of the same compound?
A: The value was 9.93 log2.

Q: And the “Level of intensity of expression in log2 measured with the Agilent chips, D7” value ([5]; stage D7, Table VI)?
A: The value was 11.94 log2.

Q: What about the “Level of intensity of expression in log2 measured with the Agilent chips, FC” value ([5]; stage FC, Table VI) of the same compound?
A: The value was 11.87 log2.

Q: What about the “Level of intensity of expression in log2 measured with the Agilent chips, WD” value ([5]; stage WD, Table VI) of the same compound?
A: Its value is 12.04 log2.
